Holding throughout (assay): NCI anticancer screen, dose series, 48 h
The subject of assay [1] is TK-10 renal.
The subject of assay [2] is HOP-62 NSCLC.
The test system of assay [3] is NCI-H23 lung.
In assay [4] the test system is SW-620 colon.
Assay [5] concerns KM12 colon.
For assay [6], the system named is UACC-62 melanoma.
Assay [7] has as its system M14 melanoma.
The test system of assay [8] is SK-MEL-2 melanoma.
Assay [9] relates to SNB-19 CNS.
For assay [10], the system named is MOLT-4 leukemia.

Several values for one entry are separate records, joined by “and”; a condition that tells them apart may be missing. Equal values may be shown once.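 Cultured in 96-well plates, cells were exposed to test compound for 48 hours across five concentrations. The concentration for 50% growth inhibition is given as GI50. At the TGI there is no net growth.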 Where a SMILES comes first, the peptide text is derived from it. The star is where a group is joined. Boc = CC(C)(C)OC(=O)* Where only a bound is given, the exact number is not on record here.

As for `Cc1ccc(N=C/C=C(\Nc2ccc(C)cc2)c2ccc3ccccc3c2)cc1`, the TGI was determined as 6.82 µM in [1]; 5.4 µM in assay [2]; 3.9 µM in assay [3]; 24.9 µM in assay [4]; 4.43 µM in assay [5]; 1.3 µM in assay [6]. Moreover, the TGI in [7] was found to be 8.69 µM; in assay [8], 11.2 µM; in assay [9], 15.4 µM; in [10] it was 0.533 µM.

For the molecule `Oc1cccc2c(Br)ccnc12`, the TGI was > 100 µM in [1]; > 69 µM in assay [2]; 17.1 µM in assay [3]; 16.7 µM in assay [4]; 21.1 µM in assay [5]; 11.1 µM in assay [6]. Moreover, the TGI in [7] stood at 16.3 µM; in assay [8], 27.1 µM; in assay [9] it was 64.1 µM; in [10], 6.91 µM.

Turning to `S=C1C(=Nc2ccccc2)N(c2ccccc2)/C(=N\c2cccc[n+]2Cc2ccccc2)N1c1ccccc1`, the TGI in assay [1] came to 99.8 µM; in assay [2] it was 29.8 µM; in assay [3], 35.4 µM; in [4] it was 35.7 µM; in assay [5] it was 32 µM; in assay [6] it was 25 µM. Further, the TGI in assay [7] is 27.5 µM; in assay [8], 55.8 µM; in assay [9], 34.8 µM; in assay [10], > 100 µM.

With `CC(C)[C@H](C)/C=C/[C@@H](C)C1CC[C@H]2[C@@]34C=C[C@]5(C[C@@H](O)CC[C@]5(C)[C@H]3CC[C@]12C)OO4` (some centres not stated), the TGI was > 100 µM in assay [1]; > 100 µM in assay [2]; 92.5 µM in assay [3]; 78.8 µM in [4]; > 100 µM in [5]; 43.6 µM in assay [6]. Besides, the TGI in assay [7] was > 100 µM; in assay [8], 88.8 µM; in assay [9] it was 81.7 µM; in [10], > 100 µM.

With `O=c1cc(-c2ccccc2)oc2c1ccc1[nH]c3ccccc3c(=O)c12`, the TGI in assay [1], in assay [2], in assay [3], in [4], in assay [5] and in [6] was > 100 µM throughout. Moreover, the TGI in assay [7], in assay [8], in assay [9] and in assay [10] was > 100 µM in each case.

On to `Cc1cc(N2CCCCC2)nc2ccc(Cc3ccc4nc(N5CCCCC5)cc(C)c4c3)cc12`, for which the TGI in [1], in [2], in assay [3], in [4], in assay [5] and in assay [6] was > 100 µM each time. In addition, the TGI in [7], in assay [8], in assay [9] and in assay [10] was > 100 µM in each case.

Regarding `C/C(=N\Nc1nc2ccccc2[nH]1)c1ncccn1`, the TGI is > 78.1 µM in assay [1]; 49.4 µM in assay [2]; 8.58 µM in assay [3]; > 100 µM in assay [4]; > 46.9 µM in assay [5]; 2.88 µM in assay [6]. In addition, the TGI in assay [7] is 0.322 µM; in assay [8] it was 17.7 µM; in assay [9], > 100 µM; in [10], > 100 µM.

On to `O=C1C=CC(=O)c2c(O)c(N3CCOCC3)c(Cl)c(O)c21`, for which the TGI in assay [1] was found to be 1.79 µM; in assay [2], 2.36 µM; in [3], 0.589 µM; in assay [4], 0.351 µM; in assay [5] it was 3.32 µM; in [6] it was 1.41 µM. The TGI is 0.358 µM in assay [7], 0.765 µM in [8], 3.17 µM in assay [9] and > 2.13 µM in assay [10].

For `CCOc1ccc2nc3nc(=O)[nH]c(C)c3c(NC(C)(CO)CO)c2c1`, the TGI in assay [1], in assay [2], in assay [3], in [4], in assay [5] and in assay [6] was > 100 µM each time. The TGI in assay [7], in [8], in assay [9] and in assay [10] was > 100 µM each time.

Consider `O=CC(O)C(O)C(O)C(O)COC(=O)NCCCCC(=O)C(F)(F)C(F)(F)C(F)(F)C(F)(F)C(F)(F)C(F)(F)C(F)(F)F` (configuration not stated), for which the TGI was > 100 µM in assay [1]; 62.8 µM in assay [2]; > 100 µM in [3]; 42.1 µM in [4]; 46.4 µM in assay [5]; 35.1 µM in assay [6]. Moreover, the TGI in assay [7] worked out at 60.2 µM; in [8], 57.5 µM; in assay [9], 31.8 µM; in [10], 31.1 µM.

As for `CC/C=C/c1cc2c(cc1O)CCC1C2CC[C@@]2(C)C1CC[C@@H]2O` (some centres not stated), the TGI in assay [1] worked out at 4.72 µM; in assay [2], 16.7 µM; in assay [3], 20.2 µM; in assay [4] it was 14.2 µM; in assay [5], 15 µM; in assay [6], 7.91 µM. Besides, the TGI stood at 12.2 µM in assay [7], 6.29 µM in [8], 17.4 µM in assay [9] and 18.8 µM in [10]. Further, the figures for the GI50 in [2] and in assay [6] were 2.69 µM and 0.485 µM, respectively.

`Cn1c2ccc(Cl)cc2c2ccc3c(c21)C(=O)C=CC3=O`: the TGI in [1], in assay [2], in assay [3], in assay [4], in assay [5] and in assay [6] was > 10 µM throughout. In addition, the TGI in [7], in assay [8], in [9] and in assay [10] was > 10 µM each time.

On to `Cc1ccc(S(=O)(=O)OCCC2CN(C(=O)OCc3ccccc3)C(C)(C)O2)cc1` (configuration not stated), for which the TGI in assay [1] was > 100 µM; in assay [3] it was 13.5 µM; in assay [4], > 100 µM; in assay [5] it was 12.4 µM; in assay [6] it was > 100 µM; in assay [7], 38.1 µM. Also, the results for the TGI in assay [8], in assay [9] and in assay [10] were 94.5 µM, 27.3 µM and 47.8 µM, respectively.

In the case of `Cc1cc(=O)[nH]c(NNC(C#N)c2ccccc2O)n1` (configuration not stated), the TGI in assay [1] is > 100 µM; in assay [2], 99.8 µM; in assay [3], > 100 µM; in [4], > 100 µM; in assay [5], > 100 µM; in assay [6], 70.3 µM. Further, the TGI in assay [8] and in assay [10] was > 100 µM each time.

For the molecule `CC(=O)OCC1OC(SC2=NC(=O)CS2)C(OC(C)=O)C(OC(C)=O)C1OC(C)=O` (configuration not stated), the TGI in assay [1], in [2], in assay [3], in assay [4], in assay [5] and in assay [6] was > 100 µM each time. Besides, the TGI in assay [7], in assay [8], in [9] and in [10] was > 100 µM throughout. Moreover, the GI50 in assay [8] was > 100 µM and 27.1 µM.

In the case of `O=C1N2CCC[C@H]2CS1(=O)=O`, the TGI in [1] was determined as 32.2 µM; in assay [2], 32 µM; in [3], 34 µM; in assay [4], 42.1 µM; in assay [5] it was 30.8 µM; in assay [6], 30 µM. Further, the TGI in assay [7] was 31.6 µM; in assay [8] it was 34.4 µM; in assay [9] it was > 100 µM; in [10] it was 22.5 µM.

With `CC(=O)CC(=O)N1CCSC1=S`, the TGI in assay [1], in [2], in assay [3], in assay [4], in assay [5] and in assay [6] was > 10 µM each time. Also, the TGI in assay [7], in assay [8], in assay [9] and in assay [10] was > 10 µM in each case.

As for `CCCC1=C(OC)C(=O)c2c(C)cc(Cl)nc2C1=O`, the TGI was 34.5 µM in [1]; 29.9 µM in assay [2]; 13.7 µM in assay [3]; 10.5 µM in assay [4]; 18.1 µM in assay [5]; 13.8 µM in [6]. Besides, the TGI in assay [7] is 18.9 µM; in assay [8], 24.4 µM; in assay [9], 34.9 µM; in assay [10], 3.72 µM.

Regarding `O=C1C=CC2(O[C@H](C3CCCCC3)[C@@H](C3CCCCC3)O2)C(SC(=O)c2ccccc2)C1` (some centres not stated), the TGI amounted to 5.62 µM in assay [1]; 9.57 µM in [2]; 8.93 µM in [3]; 16.8 µM in assay [4]; 18.3 µM in [5]; 8.57 µM in assay [6]. Moreover, the TGI in assay [7] is 7.9 µM; in assay [8], 12.8 µM; in assay [9], 6.56 µM; in assay [10], 3.77 µM.

For `C=C(CN(CC)CC)C1(c2ccccc2)CC2(CCCC2)C(=O)O1` (configuration not stated), the TGI in assay [1] is > 100 µM; in assay [2], > 100 µM; in [3], 98.9 µM; in [4] it was > 100 µM; in [5], > 100 µM; in assay [6], > 100 µM. The TGI in assay [7], in [8], in [9] and in assay [10] was > 100 µM each time.

On to `CC(C)(C)OC(=O)C(C#N)C(=O)c1ccc(C(=O)O)[nH]1` (configuration not stated), for which the TGI was > 100 µM in assay [1]; > 100 µM in [3]; > 100 µM in assay [4]; > 100 µM in assay [5]; 45.7 µM in assay [6]; > 100 µM in assay [7]. In addition, the TGI in assay [8] was 68.5 µM; in assay [9] it was > 100 µM; in assay [10] it was > 100 µM.

Take `O=C1C(N2CCN(CCOCCO)CC2)=C(Cl)C(=O)c2ncccc21`: the TGI is 48.5 µM in assay [1]; > 100 µM in [2]; 42.5 µM in assay [3]; 50.7 µM in [4]; > 100 µM in assay [5]; 43.8 µM in [6]. Moreover, the TGI in assay [7] was 39.2 µM; in assay [8], 43.9 µM; in [10], 5.15 µM and 31.4 µM. In addition, the GI50 in [2] is > 100 µM; in [5], > 100 µM; in assay [10], 9.63 µM.

For the molecule `COc1c(C)c(C/C=C(\C)CCCC(C)CCCC(C)CCCC(C)C)c(OC)c2ccccc12` (configuration not stated), the TGI in assay [1], in assay [3], in assay [4], in assay [5], in assay [6] and in assay [7] was > 100 µM in each case. Besides, the TGI in assay [8], in assay [9] and in assay [10] was > 100 µM in each case.

`COC(=O)C(Cc1c[nH]c2ccccc12)NC(=O)C(Cc1c[nH]c2ccccc12)NC(=O)C(Cc1c[nH]c2ccccc12)NC(=O)C(Cc1c[nH]c2ccccc12)NC(=O)C(Cc1c[nH]c2ccccc12)NC(=O)C(Cc1c[nH]c2ccccc12)NC(=O)C(Cc1c[nH]c2ccccc12)NC(=O)OC(C)(C)C` (configuration not stated) (Boc-WWWWWWW-OMe; configuration not given here): the TGI in [1] is > 100 µM; in [2], > 100 µM; in assay [3] it was > 100 µM; in [4], > 100 µM; in [6], > 100 µM; in [7], 58.9 µM. Moreover, the TGI is 87.9 µM in assay [8], > 100 µM in [9] and > 100 µM in assay [10].

`COc1cccc2c1OC1c3ccccc3OCC1(O)C2` (configuration not stated): the TGI in assay [1], in assay [2], in assay [3], in assay [4], in assay [5] and in assay [6] was > 100 µM in each case. The TGI in [7], in [8] and in assay [10] was > 100 µM in each case.

For `O=c1[nH]cc(N=Cc2cc(Cl)ccc2O)c(=O)[nH]1`, the TGI in assay [1] was > 100 µM; in assay [2], 53.7 µM; in assay [3] it was > 100 µM; in assay [5], > 100 µM; in assay [6], 71.7 µM; in [7], 48.9 µM. Also, the TGI in [8] was 64.5 µM; in [9] it was > 100 µM; in assay [10], 63.1 µM.

(Values after PubChem BioAssay (NCI).)
